This passage reports IC50 results from patent US8969583B2, “3-phenyl-5-ureidoisothiazole-4-carboximide and 3-amino-5-phenylisothiazole derivatives as kinase inhibitors” (Allergan, Inc., priority 2011, dated 2015).

Test [1] has as its target VEGFR2 (purified cytoplasmic domain KDR protein) (Homo sapiens (Human), UniProt P35968). Description: VEGFR2 Kinase Assay (biochemical KDR kinase assay, ELISA). The following applies: 2.7 μM ATP, 15 minute incubation at 30° C.; read-out: VEGFR2 Enzyme Assay (IC50 nM). The method, then:
Biochemical KDR kinase assays were performed in 96 well microtiter plates that were coated overnight with 75 μg/well of poly-Glu-Tyr (4:1) in 10 mM Phosphate Buffered Saline (PBS), pH 7.4. The coated plates were washed with 2 mls per well PBS+0.05% Tween-20 (PBS-T), blocked by incubation with PBS containing 1% BSA, then washed with 2 mls per well PBS-T prior to starting the reaction. […] Reactions were initiated by the addition 20 ul per well of kinase buffer containing 200-300 ng purified cytoplasmic domain KDR protein (BPS Bioscience, San Diego, Calif.). Following a 15 minute incubation at 30° C., the reactions were washed 2 mls per well PBS-T. 100 μl of a monoclonal anti-phosphotyrosine antibody-peroxidase conjugate diluted 1:10,000 in PBS-T was added to the wells for 30 minutes. Following a 2 mls per well wash with PBS-Tween-20, 100 μl of O-Phenylenediamine Dihydrochloride in phosphate-citrate buffer, containing urea hydrogen peroxide, was added to the wells for 7-10 minutes as a colorimetric substrate for the peroxidase. The reaction was terminated by the addition of 100 μl of 2.5NH2SO4 to each well and read using a microplate ELISA reader set at 492 nm. IC50 values for compound inhibition were calculated directly from graphs of optical density (arbitrary units) versus compound concentration following subtraction of blank values.
For orientation: ELISA stands for enzyme-linked immunosorbent assay.

A further test has as its target VEGFR1 (Homo sapiens (Human), UniProt P17948). Description: VEGFR1 Enzyme Assay. In kind it is biochemical.
The target of test [2] is PDGFRβ (purified cytoplasmic domain PDGFR-b protein) (Homo sapiens (Human), UniProt P09619). Description: PDGFRβ Kinase Assay (biochemical, ELISA). The following applies: 36 μM ATP, 60 minute incubation at 30° C.; read-out: PDGFRβ Enzyme Assay (IC50 nM). The method, then: Biochemical PDGFRβ kinase assays were performed in 96 well microtiter plates that were coated overnight with 75 μg of poly-Glu-Tyr (4:1) in 10 mM Phosphate Buffered Saline (PBS), pH 7.4. The coated plates were washed with 2 mls per well PBS+0.05% Tween-20 (PBS-T), blocked by incubation with PBS containing 1% BSA, then washed with 2 mls per well PBS-T prior to starting the reaction. Reactions were carried out in 100 μL reaction volumes containing 36 μM ATP in kinase buffer (50 mM Hepes buffer pH 7.4, 20 mM MgCl2, 0.1 mM MnCl2 and 0.2 mM Na3VO4). Test compounds were reconstituted in 100% DMSO and added to the reaction to give a final DMSO concentration of 5%. Reactions were initiated by the addition 20 ul per well of kinase buffer containing 200-300 ng purified cytoplasmic domain PDGFR-b protein (Millipore). Following a 60 minute incubation at 30° C., the reactions were washed 2 mls per well PBS-T. 100 μl of a monoclonal anti-phosphotyrosine antibody-peroxidase conjugate diluted 1:10,000 in PBS-T was added to the wells for 30 minutes. Following a 2 mls per well wash with PBS-Tween-20, 100 μl of O-Phenylenediamine Dihydrochloride in phosphate-citrate buffer, containing urea hydrogen peroxide, was added to the wells for 7-10 minutes as a colorimetric substrate for the peroxidase. The reaction was terminated by the addition of 100 μl of 2.5NH2SO4 to each well and read using a microplate ELISA reader set at 492 nm. IC50 values for compound inhibition were calculated directly from graphs of optical density (arbitrary units) versus compound concentration following subtraction of blank values.
Sequence of PDGFRβ (purified cytoplasmic domain PDGFR-b protein) (P09619 554-1106): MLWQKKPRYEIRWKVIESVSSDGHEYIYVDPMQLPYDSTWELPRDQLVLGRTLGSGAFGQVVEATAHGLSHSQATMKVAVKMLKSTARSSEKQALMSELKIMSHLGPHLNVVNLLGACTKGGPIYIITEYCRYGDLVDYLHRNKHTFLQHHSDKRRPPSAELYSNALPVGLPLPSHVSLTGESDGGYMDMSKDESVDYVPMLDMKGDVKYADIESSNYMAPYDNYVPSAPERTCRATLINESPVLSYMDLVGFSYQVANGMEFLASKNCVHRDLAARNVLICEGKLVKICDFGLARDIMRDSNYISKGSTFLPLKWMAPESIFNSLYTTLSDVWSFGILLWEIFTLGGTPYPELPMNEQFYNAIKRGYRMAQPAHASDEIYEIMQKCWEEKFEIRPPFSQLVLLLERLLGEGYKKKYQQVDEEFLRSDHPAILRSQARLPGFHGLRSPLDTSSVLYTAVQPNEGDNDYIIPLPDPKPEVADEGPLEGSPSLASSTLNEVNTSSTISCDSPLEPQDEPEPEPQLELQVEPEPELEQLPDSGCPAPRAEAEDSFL

Sequence of VEGFR2 (purified cytoplasmic domain KDR protein) (P35968 786-1356): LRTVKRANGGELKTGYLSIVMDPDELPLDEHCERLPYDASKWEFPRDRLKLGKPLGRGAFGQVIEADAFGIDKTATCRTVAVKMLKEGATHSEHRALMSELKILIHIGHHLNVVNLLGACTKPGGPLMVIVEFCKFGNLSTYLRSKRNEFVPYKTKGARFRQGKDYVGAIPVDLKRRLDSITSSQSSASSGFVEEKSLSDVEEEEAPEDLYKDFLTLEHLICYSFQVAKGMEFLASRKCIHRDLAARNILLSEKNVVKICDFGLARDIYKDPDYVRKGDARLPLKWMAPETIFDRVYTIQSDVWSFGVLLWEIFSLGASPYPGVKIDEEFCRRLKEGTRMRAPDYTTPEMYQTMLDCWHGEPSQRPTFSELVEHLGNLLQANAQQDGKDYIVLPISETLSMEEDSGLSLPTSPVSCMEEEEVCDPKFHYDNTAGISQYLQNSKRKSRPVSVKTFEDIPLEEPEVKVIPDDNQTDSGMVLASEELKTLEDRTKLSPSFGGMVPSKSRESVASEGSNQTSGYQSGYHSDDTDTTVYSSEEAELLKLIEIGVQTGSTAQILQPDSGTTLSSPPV
Sequence of VEGFR1 (P17948 27-1338, species assumed): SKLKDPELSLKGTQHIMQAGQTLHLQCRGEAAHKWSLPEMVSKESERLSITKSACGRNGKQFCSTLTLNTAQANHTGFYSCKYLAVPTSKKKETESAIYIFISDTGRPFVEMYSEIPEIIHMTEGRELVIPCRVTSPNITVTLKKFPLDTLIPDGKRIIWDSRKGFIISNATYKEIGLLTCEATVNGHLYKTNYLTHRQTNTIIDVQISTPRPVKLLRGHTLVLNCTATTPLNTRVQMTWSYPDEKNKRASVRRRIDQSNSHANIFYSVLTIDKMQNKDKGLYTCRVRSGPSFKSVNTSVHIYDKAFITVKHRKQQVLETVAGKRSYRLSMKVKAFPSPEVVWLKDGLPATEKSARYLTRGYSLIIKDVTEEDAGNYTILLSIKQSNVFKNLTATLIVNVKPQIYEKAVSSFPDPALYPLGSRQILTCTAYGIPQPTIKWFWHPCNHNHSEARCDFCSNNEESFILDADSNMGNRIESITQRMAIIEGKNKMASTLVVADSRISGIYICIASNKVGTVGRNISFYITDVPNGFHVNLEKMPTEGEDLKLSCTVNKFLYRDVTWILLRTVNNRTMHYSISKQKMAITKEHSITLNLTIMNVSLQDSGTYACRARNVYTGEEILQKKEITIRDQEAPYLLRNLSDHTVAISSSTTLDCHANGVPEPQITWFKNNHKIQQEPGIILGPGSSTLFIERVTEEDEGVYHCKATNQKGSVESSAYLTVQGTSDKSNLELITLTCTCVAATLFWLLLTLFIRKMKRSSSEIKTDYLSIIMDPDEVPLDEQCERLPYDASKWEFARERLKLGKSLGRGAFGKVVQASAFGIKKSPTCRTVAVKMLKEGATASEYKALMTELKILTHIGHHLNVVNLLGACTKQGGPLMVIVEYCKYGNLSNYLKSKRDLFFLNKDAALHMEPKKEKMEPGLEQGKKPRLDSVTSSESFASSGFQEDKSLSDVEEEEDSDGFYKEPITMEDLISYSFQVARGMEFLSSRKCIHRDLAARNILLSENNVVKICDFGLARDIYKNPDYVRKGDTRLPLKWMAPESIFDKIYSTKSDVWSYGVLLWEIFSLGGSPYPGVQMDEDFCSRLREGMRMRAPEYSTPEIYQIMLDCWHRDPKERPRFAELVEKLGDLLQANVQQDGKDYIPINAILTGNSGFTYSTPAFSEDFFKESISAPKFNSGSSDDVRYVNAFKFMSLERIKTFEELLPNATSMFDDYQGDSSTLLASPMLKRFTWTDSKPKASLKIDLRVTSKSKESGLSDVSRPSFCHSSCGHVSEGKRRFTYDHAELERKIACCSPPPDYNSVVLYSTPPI

As to `NC(=O)c1c(-c2ccc([N+](=O)[O-])cc2)nsc1NC(=O)NCCCN1CCOCC1` [Example 1, 5-({[(3-morpholin-4-ylpropyl)amino]carbonyl}amino)-3-(4-nitrophenyl)isothiazole-4-carboxamide], the IC50 (in test [1]; against VEGFR1; in test [2]) was > 10000 nM throughout. With `NC(=O)c1c(-c2ccc(N)cc2)nsc1NC(=O)NCCCN1CCOCC1` [Example 2, 3-(4-aminophenyl)-5-({[(3-morpholin-4-ylpropyl)amino]carbonyl}amino)isothiazole-4-carboxamide], in test [2], the half-inhibitory concentration (IC50) was > 10000 nM. Consider `NC(=O)c1c(-c2ccc(NC(=O)Nc3ccccc3)cc2)nsc1NC(=O)NCCCN1CCOCC1` [Example 3, 3-{4-[(anilinocarbonyl)amino]phenyl}-5-({[(3-morpholin-4-ylpropyl)amino]carbonyl}amino)isothiazole-4-carboxamide], for which the concentration for half-maximal inhibition (IC50) in test [2] amounted to 21 nM. Regarding `Cc1ccc(F)c(NC(=O)Nc2ccc(-c3nsc(NC(=O)NCCCN4CCOCC4)c3C(N)=O)cc2)c1` [Example 4, 3-[4-({[(2-fluoro-5-methylphenyl)amino]carbonyl}amino)phenyl]-5-({[(3-morpholin-4-ylpropyl)amino]carbonyl}amino)isothiazole-4-carboxamide], in test [2], the IC50 stood at 47 nM. On the same count and under the same terms, next, `Cc1cccc(NC(=O)Nc2ccc(-c3nsc(NC(=O)NCCCN4CCOCC4)c3C(N)=O)cc2)c1` [Example 5, 3-[4-({[(3-methylphenyl)amino]carbonyl}amino)phenyl]-5-({[(3-morpholin-4-ylpropyl)amino]carbonyl}amino)isothiazole-4-carboxamide]: 10 nM. The same measure, in the same setting: next, `NC(=O)c1c(-c2ccc(NC(=O)Nc3cc(C(F)(F)F)ccc3F)cc2)nsc1NC(=O)NCCCN1CCOCC1` [Example 6, 3-{4-[({[2-fluoro-5-(trifluoromethyl)phenyl]amino}carbonyl)amino]phenyl}-5-({[(3-morpholin-4-ylpropyl)amino]carbonyl}amino)isothiazole-4-carboxamide]: 24 nM; `Cc1ccc(NC(=O)Nc2ccc(-c3nsc(NC(=O)NCCCN4CCOCC4)c3C(N)=O)cc2)cc1` [Example 7, 3-[4-({[(4-methylphenyl)amino]carbonyl}amino)phenyl]-5-({[(3-morpholin-4-ylpropyl)amino]carbonyl}amino)isothiazole-4-carboxamide]: 12 nM. On to `COCCCNC(=O)Nc1snc(-c2ccc(N)cc2)c1C(N)=O` [Example 9, 3-(4-aminophenyl)-5-({[(3-methoxypropyl)amino]carbonyl}amino)isothiazole-4-carboxamide], for which the half-maximal inhibitory concentration (IC50) at VEGFR1 was > 1000 nM; in test [2], > 10000 nM. As for `NC(=O)c1c(-c2ccc(NC(=O)c3cccc(C(F)(F)F)c3)cc2)nsc1NC(=O)NCCCN1CCOCC1` [Example 11, 5-({[(3-morpholin-4-ylpropyl)amino]carbonyl}amino)-3-(4-{[3-(trifluoromethyl)benzoyl]amino}phenyl)isothiazole-4-carboxamide], the IC50 (on VEGFR1; in test [2]) was > 1000 nM each time. As for `NC(=O)c1c(-c2ccc([N+](=O)[O-])cc2)nsc1NC(=O)N1CCCC1=O` [Example 45, 3-(4-Nitro-phenyl)-5-[(2-oxo-pyrrolidine-1-carbonyl)-amino]-isothiazole-4-carboxylic acid amide], in test [1], the half-inhibitory concentration (IC50) was > 10000 nM. For the compound `Cc1ccc(NC(=O)Nc2ccc(-c3nsc(NC(=O)NCCCC(=O)O)c3C(N)=O)cc2)cc1` [Example 48, 4-{[({4-(Aminocarbonyl)-3-[4-({[(4-methylphenyl)amino]carbonyl}amino)phenyl]isothiazol-5-yl}amino)carbonyl]amino}butanoic acid], the concentration for half-maximal inhibition (IC50) in test [2] worked out at 10 nM. Same read-out and setting: next, `Cc1ccc(NC(=O)Nc2ccc(-c3nsc(NC(=O)NCCCO)c3C(N)=O)cc2)cc1` [Example 56, 5-({[(3-Hydroxypropyl)amino]carbonyl}amino)-3-[4-({[(4-methylphenyl)amino]carbonyl}amino)phenyl]isothiazole-4-carboxamide]: 13 nM. On to `NC(=O)c1c(-c2ccc(N)cc2)nsc1N` [Example 58, 5-Amino-3-(4-aminophenyl)isothiazole-4-carboxamide], for which, in test [1], the IC50 is > 10000 nM. For the compound `Cc1ccc(NC(=O)Nc2ccc(-c3nsc(N)c3C(N)=O)cc2)cc1` [Example 59, 5-Amino-3-[4-({[(4-methylphenyl)amino]carbonyl}amino)phenyl]isothiazole-4-carboxamide], the concentration for half-maximal inhibition (IC50) in test [2] came out at 60 nM. Turning to `Cc1ccc(F)c(NC(=O)Nc2ccc(-c3nsc(N)c3C(N)=O)cc2)c1` [Example 60, 5-Amino-3-[4-({[(2-fluoro-5-methylphenyl)amino]carbonyl}amino)phenyl]isothiazole-4-carboxamide], in test [2], the IC50 amounted to 70 nM.

As to `NC(=O)c1c(-c2cccc([N+](=O)[O-])c2)nsc1N` [Example 61, 5-Amino-3-(3-nitrophenyl)isothiazole-4-carboxamide], in test [1], the 50% inhibitory concentration (IC50) is > 10000 nM.

Turning to `NC(=O)c1c(-c2cccc(N)c2)nsc1N` [Example 62, 5-Amino-3-(3-aminophenyl)isothiazole-4-carboxamide], the IC50 in test [1] is > 10000 nM. As to `NC(=O)c1c(-c2cccc(NC(=O)c3cccc(C(F)(F)F)c3)c2)nsc1N` [Example 64, 5-Amino-3-(3-{[3-(trifluoromethyl)benzoyl]amino}phenyl)isothiazole-4-carboxamide], the 50% inhibitory concentration (IC50) in test [2] came out at 844 nM. With `NC(=O)c1c(-c2cccc(NC(=O)Nc3ccccc3)c2)nsc1N` [Example 65, 5-Amino-3-{3-[(anilinocarbonyl)amino]phenyl}isothiazole-4-carboxamide], the IC50 in test [1] was > 10000 nM; in test [2] it was > 1000 nM.

In the case of `NC(=O)c1c(-c2ccc(N)cc2)nsc1NC(=O)NCCCN1CCCC1` [Example 67, 3-(4-Aminophenyl)-5-({[(3-pyrrolidin-1-ylpropyl)amino]carbonyl}amino)isothiazole-4-carboxamide], in test [1], the half-inhibitory concentration (IC50) is > 1000 nM. Take `Cc1ccc(NC(=O)Nc2ccc(-c3nsc(NC(=O)NCCCN4CCCC4)c3C(N)=O)cc2)cc1` [Example 68, 3-[4-({[(4-Methylphenyl)amino]carbonyl}amino)phenyl]-5-({[(3-pyrrolidin-1-ylpropyl)amino]carbonyl}amino)isothiazole-4-carboxamide]: the IC50 in test [2] came to 12 nM. On the same count and under the same terms, next, `Cc1ccc(F)c(NC(=O)Nc2ccc(-c3snc(N)c3C(N)=O)cc2)c1` [Example 69, 3-Amino-5-[4-({[(2-fluoro-5-methylphenyl)amino]carbonyl}amino)phenyl]isothiazole-4-carboxamide]: 48 nM. Still for that read-out and setting: in the case of `Cc1ccc(F)c(NC(=O)Nc2ccc(-c3snc(NCCCN4CCOCC4)c3C(N)=O)cc2)c1` [Example 70, 5-[4-({[(2-Fluoro-5-methylphenyl)amino]carbonyl}amino)phenyl]-3-[(3-morpholin-4-ylpropyl)amino]isothiazole-4-carboxamide] it was 70 nM.

In general, IC50 refers to the concentration at which inhibition is half-maximal.
